Laboratory results taken from article PMC11645656, “MRGPRX4 mediates phospho-drug associated pruritus in a humanized mouse model” (Science translational medicine, 2024).
Several values for one entry are separate records, joined by “and”; a condition that tells them apart may be missing. Identical values can stand only once.

How the values were obtained:
Type in all cases: cell-based
MRGPRX4 (S83) = target: T1, MRGPRX4 (S83) (Homo sapiens, UniProt Q96LA9, L83S); assay: EC50 determination, intracellular calcium mobilization in MRGPRX4 stably expressed HEK293 cells (FLIPR Calcium 5, Flexstation-3); parameters: Fig. 1D dose-response, calcium mobilization response (individual replicate) / calcium mobilization response (Fig. 1D dose-response raw data): unit not given here
T1 construct: expressed in transfected cells
T1 sequence (Q96LA9 whole entry L83S): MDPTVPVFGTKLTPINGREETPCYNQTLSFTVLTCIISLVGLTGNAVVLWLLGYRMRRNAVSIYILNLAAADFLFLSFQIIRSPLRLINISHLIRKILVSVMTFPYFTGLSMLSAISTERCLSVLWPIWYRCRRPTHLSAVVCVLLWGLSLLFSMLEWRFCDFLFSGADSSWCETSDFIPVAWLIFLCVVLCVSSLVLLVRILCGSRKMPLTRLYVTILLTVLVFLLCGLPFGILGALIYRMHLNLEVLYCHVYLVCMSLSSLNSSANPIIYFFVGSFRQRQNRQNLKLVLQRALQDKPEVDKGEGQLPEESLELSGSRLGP
Procedure: HEK293 cells and MRGPRX4 stably expressed HEK293 cells were seeded in 100 μl culture media on 96-well plates at a density of 40,000 cells per well and incubated overnight. The next day, the media were replaced with a dye-loading solution from the FLIPR Calcium 5 assay kit (Molecular Devices), diluted in Hank's Balanced Salt Solution (HBSS) with 20 mM HEPES, pH 7.4. After 1 h of incubation at 37°C, cells were allowed to recover for 10 min in the dark at room temperature prior to performing intracellular calcium mobilization assay in a Flexstation-3 instrument with SoftMax®Pro 7.1 software (Molecular Devices). Serial concentrations of tested drugs were prepared in HBSS/HEPES solution at 3X concentration. […] Compounds were tested in triplicates and the signals were averaged. Responses were determined by subtracting the minimum signal (at the baseline before adding the drug) from the maximum signal (obtained after drug stimulation). Four-parameter logistic (4PL) curve fit was used to plot the dose-response curves. […] Both dose-response curve fitting and EC50s calculation are computed with GraphPad Prism software (version: 6.o or above).

HTLA cells = assay: PRESTO-Tango β-arrestin recruitment assay, parental HTLA cells without MRGPRX4 (control, fig. S1)
Source text: Supplement NIHMS2038790-supplement-table.xlsx, sheet "fig. S1" | column: Concentration (M)

MRGPRX4 WT (S83) = MRGPRX4 WT (S83) (Homo sapiens, UniProt Q96LA9, L83S); assay: PRESTO-Tango β-arrestin recruitment assay, HTLA cells stably expressing WT (S83) MRGPRX4; parameters: expressed in transfected cells; conditions: HTLA::MRGPRX4
Sequence of MRGPRX4 WT (S83) (Q96LA9 whole entry L83S, the tested form may be a part): as the sequence (Q96LA9 whole entry L83S) above
Procedure: HTLA cells, a cell line derived from HEK293 and engineered to stably express a tTA-dependent luciferase reporter and a β-arrestin2-TEV fusion gene, were generously provided by Richard Axel's laboratory. HTLA cells were cultured in growth medium containing 2 μg/ml puromycin and 100 μg/ml hygromycin B in 5% CO2 at 37 °C. Stably MRGPRX4-expressing HTLA cells were generated by transfecting pcDNA3.1(+)-Zeo containing MRGPRX4-Tango construct (either with WT or S83L mutant sequence) into HTLA cells with Lipofectamine 3000 and selecting the successful transfected clones with Zeocin.
HTLA cells stably expressing either WT or S83L MRGPRX4 were seeded in PDL-coated 96-well white clear bottom cell culture plates with DMEM containing 10% FBS, at a density of 35,000 cells per well and were allowed to attach to the bottom of the wells overnight. The next day, growth medium was replaced with 100 μl of serum-free medium containing the tested drugs at various concentrations, and the cells were then incubated at 37°C for 24 h. On the following day, media with drug solutions was removed and 50 μl per well of Bright-Glo™ Reagent from Bright-Glo™ Luciferase Assay System (Promega) was loaded. The plate was incubated at room temperature in the dark for 5 min, and the relative luminescence units were measured using the Flexstation-3 instrument with SoftMax®Pro 7.1 software (Molecular Devices). Dose response curves and EC50s were analyzed as described above.
Data are from at least two independent experiments, each performed in
triplicate, and are depicted as mean ± SEM.
arrestin2-TEV fusion gene and a tTA -dependent luciferase reporter.

## C[C@@H]1C[C@H]2[C@@H]3CCC4=CC(=O)C=C[C@]4(C)[C@@]3(F)[C@@H](O)C[C@]2(C)[C@@]1(O)C(=O)CO [Dexamethasone]
MRGPRX4 (S83); Concentration 9.76563e-7 M
  Fig. 1D dose-response, calcium mobilization response (individual replicate): -21.027 and -38.068 and -44.01 and -38.887 and -46.292 and -51.601 and -47.998 and -19.021 and -24.245
MRGPRX4 (S83); Concentration 1.95313e-6 M
  Fig. 1D dose-response, calcium mobilization response (individual replicate): -34.306 and -12.488 and -34.424 and -46.421 and -44.65 and -42.861 and -53.58 and -51.620 and -38.055
MRGPRX4 (S83); Concentration 3.90625e-6 M
  Fig. 1D dose-response, calcium mobilization response (individual replicate): -45.647 and -46.32 and -35.376 and -38.61 and -34.811 and -45.234 and -56.373 and -60.668 and -3.309
MRGPRX4 (S83); Concentration 7.8125e-6 M
  Fig. 1D dose-response, calcium mobilization response (individual replicate): -36.025 and -46.229 and -47.556 and -37.359 and -53.743 and -48.739 and -48.609 and -47.284 and -56.875
MRGPRX4 (S83); Concentration 1.5625e-5 M
  Fig. 1D dose-response, calcium mobilization response (individual replicate): -54.866 and -50.537 and -42.313 and -47.552 and -53.2 and -55.3 and -57.812 and -33.441 and -66.652
MRGPRX4 (S83); Concentration 3.125e-5 M
  Fig. 1D dose-response, calcium mobilization response (individual replicate): -56.076 and -45.2 and -44.531 and -46.041 and -46.006 and -58.081 and -60.475 and -59.746 and -11.251
MRGPRX4 (S83); Concentration 6.25e-5 M
  Fig. 1D dose-response, calcium mobilization response (individual replicate): -51.427 and -36.666 and -43.901 and -55.62 and -42.251 and -57.261 and -57.456 and -8.995 and -73.787
MRGPRX4 (S83); Concentration 0.00025 M
  Fig. 1D dose-response, calcium mobilization response (individual replicate): -40.896 and -34.789 and -49.545 and -32.204 and -28.295 and -45.507 and -42.773 and -53.155 and -37.185
MRGPRX4 (S83); Concentration 0.0005 M
  Fig. 1D dose-response, calcium mobilization response (individual replicate): -3.046 and -9.71 and -33.403 and -15.448 and -3.273 and -16.368 and -26.248 and -13.645 and -6.391
MRGPRX4 (S83); Concentration 0.001 M
  Fig. 1D dose-response, calcium mobilization response (individual replicate): -8.458 and -6.416 and -11.748 and -15.382 and -27.522 and -19.884 and -14.893 and -13.481 and -19.179
HTLA cells; concentration 9.77e-7 M
  PRESTO-Tango response (fig. S1), single replicate: 0.004822 and 0.002858 and 0.001836 and 0.006042 and 0.003642 and 0.003121
HTLA cells; concentration 1.95e-6 M
  PRESTO-Tango response (fig. S1), single replicate: 0.004669 and 0.01135 and 0.007279 and 0.01201 and 0.004751 and 0.007109
HTLA cells; concentration 0.000004 M
  PRESTO-Tango response (fig. S1), single replicate: 0.004146 and 0.005626 and 0.002299 and 0.005155 and 0.007205 and 0.002627
HTLA cells; concentration 0.000008 M
  PRESTO-Tango response (fig. S1), single replicate: 0.006851 and 0.005435 and 0.002472 and 0.006078 and 0.009879 and 0.006343
HTLA cells; concentration 3.13e-5 M
  PRESTO-Tango response (fig. S1), single replicate: 0.004236 and 0.003572 and 0.004837 and 0.002213 and 0.004661 and 0.004714
HTLA cells; concentration 6.25e-5 M
  PRESTO-Tango response (fig. S1), single replicate: 0.00398 and 0.007183 and 0.008495 and 0.006729 and 0.001521 and 0.004353
HTLA cells; concentration 0.00025 M
  PRESTO-Tango response (fig. S1), single replicate: 0.001595 and 0.004197 and 0.004126 and 0.004268 and 0.000295 and 0.005991
HTLA cells; concentration 0.0005 M
  PRESTO-Tango response (fig. S1), single replicate: 0.002985 and 0.003661 and 0.004712 and 0.003009 and 0.002249 and 0.001042
HTLA cells; concentration 0.001 M
  PRESTO-Tango response (fig. S1), single replicate: 0.002207 and 0.002577 and 0.002201 and 0.000402 and 0.004573 and 0.000993
MRGPRX4 WT (S83); concentration 9.77e-7 M
  PRESTO-Tango response (fig. S1), single replicate: 0.05502 and 0.04613 and 0.0583 and 0.05727 and 0.00632 and 0.09586
MRGPRX4 WT (S83); concentration 1.95e-6 M
  PRESTO-Tango response (fig. S1), single replicate: 0.08603 and 0.06619 and 0.1004 and 0.1201 and 0.05846 and 0.07406
MRGPRX4 WT (S83); concentration 0.000004 M
  PRESTO-Tango response (fig. S1), single replicate: 0.0533 and 0.07958 and 0.05713 and 0.07013 and 0.1112 and 0.008646
MRGPRX4 WT (S83); concentration 0.000008 M
  PRESTO-Tango response (fig. S1), single replicate: 0.06153 and 0.0682 and 0.07104 and 0.08136 and 0.03922 and 0.08019
MRGPRX4 WT (S83); concentration 3.13e-5 M
  PRESTO-Tango response (fig. S1), single replicate: 0.0689 and 0.04671 and 0.04196 and 0.06207 and 0.03885 and 0.05666
MRGPRX4 WT (S83); concentration 6.25e-5 M
  PRESTO-Tango response (fig. S1), single replicate: 0.03211 and 0.04959 and 0.04067 and 0.02014 and 0.05174 and 0.05049
MRGPRX4 WT (S83); concentration 0.00025 M
  PRESTO-Tango response (fig. S1), single replicate: 0.07947 and 0.03843 and 0.03927 and 0.03864 and 0.06682 and 0.0517
MRGPRX4 WT (S83); concentration 0.0005 M
  PRESTO-Tango response (fig. S1), single replicate: 0.06213 and 0.03131 and 0.04202 and 0.04862 and 0.02625 and 0.06059
MRGPRX4 WT (S83); concentration 0.001 M
  PRESTO-Tango response (fig. S1), single replicate: 0.05095 and 0.05745 and 0.03908 and 0.09388 and 0.02339 and 0.03021
